The values below come from ChEMBL document CHEMBL1275457, “Postantibiotic effects and bactericidal activities of levofloxacin and gatifloxacin at concentrations simulating those of topical ophthalmic administration against fluoroquinolone-resistant and fluoroquinolone-sensitive methicillin-resistant Staphylococcus aureus strains” (2008).

What is called MIC is the least concentration at which growth counts as inhibited. Read a low MIC as inhibition by little substance.

Converted amounts (≈) assume the structure as drawn. The source made the active and inactive calls. No cut-off for these calls is given here.

Test [1] deals with Staphylococcus aureus. Kind of test: Antimicrobial activity against levofloxacin-sensitive and methicillin-resistant Staphylococcus aureus JCSC 6822 harboring mutation in norA gene by broth microdilution method. Format: functional.
The test system of test [2] is Staphylococcus aureus. Kind of test: Antimicrobial activity against high level levofloxacin and methicillin-resistant Staphylococcus aureus JCSC 6764 expressing gyrA Ser84Leu, gyrB Asp437Glu norA T389C and grlA Ser80Phe/Glu84Lys mutants by broth microdilution method. The test is classed as functional. For orientation: Dilution methods test growth across graded concentrations, often in twofold steps.

The subject of test [3] is Staphylococcus aureus. The test can be described thus: Bactericidal activity against levofloxacin-sensitive and methicillin-resistant Staphylococcus aureus at 8 times MIC after 24 hrs by time-kill assay. Format: functional, organism-based.
Test [4] has as its system Staphylococcus aureus. The test can be described thus: Bactericidal activity against low level levofloxacin and methicillin-resistant Staphylococcus aureus at 2048 ug/ml after 24 hrs by time-kill assay. Format: functional, organism-based.
The subject of test [5] is Staphylococcus aureus. Kind of test: Bactericidal activity against levofloxacin-sensitive and methicillin-resistant Staphylococcus aureus at 4 times MIC after 24 hrs by time-kill assay. The test is classed as functional, organism-based.
In test [6] the test system is Staphylococcus aureus. The test can be described thus: Antimicrobial activity against low level levofloxacin and methicillin-resistant Staphylococcus aureus JCSC 6766 expressing gyrA Glu84Lys and grlA Ser80Phe mutants by broth microdilution method. The test is classed as functional.
Test [7] deals with Staphylococcus aureus. Kind of test: Antimicrobial activity against levofloxacin-sensitive and methicillin-resistant Staphylococcus aureus JCSC 6770 by broth microdilution method. Format: functional.
Test [8] relates to Staphylococcus aureus. Kind of test: Antimicrobial activity against high level levofloxacin and methicillin-resistant Staphylococcus aureus JCSC 6765 expressing gyrA Ser84Leu, norA T389C and grlA Ser80Phe/Glu84Lys mutants by broth microdilution method. The test is classed as functional.
The subject of test [9] is Staphylococcus aureus. The test can be described thus: Antimicrobial activity against low level levofloxacin and methicillin-resistant Staphylococcus aureus JCSC 6768 expressing gyrA Glu84Lys and grlA Ser80Phe mutants by broth microdilution method. Format: functional.
In test [10] the test system is Staphylococcus aureus. Kind of test: Bactericidal activity against high level levofloxacin and methicillin-resistant Staphylococcus aureus at 8 times MIC after 24 hrs by time-kill assay. The test is classed as functional, organism-based.
The subject of test [11] is Staphylococcus aureus. The test can be described thus: Antimicrobial activity against low level levofloxacin and methicillin-resistant Staphylococcus aureus JCSC 6767 expressing gyrA Glu84Lys and grlA Ser80Phe mutants by broth microdilution method. The test is classed as functional.
In test [12] the test system is Staphylococcus aureus. Kind of test: Bactericidal activity against levofloxacin-sensitive and methicillin-resistant Staphylococcus aureus at 16 times MIC after 24 hrs by time-kill assay. Format: functional, organism-based.
For test [13], the system named is Staphylococcus aureus. Kind of test: Antimicrobial activity against levofloxacin-sensitive and methicillin-resistant Staphylococcus aureus JCSC 6769 by broth microdilution method. The test is classed as functional.
For test [14], the system named is Staphylococcus aureus. The test can be described thus: Antimicrobial activity against high level levofloxacin and methicillin-resistant Staphylococcus aureus JCSC 6763 expressing gyrA Ser84Leu/Ser85Pro and grlA Ser80Phe/Glu84Lys mutants by broth microdilution method. Format: functional.
Test [15] relates to Staphylococcus aureus. Kind of test: Bactericidal activity against low level levofloxacin and methicillin-resistant Staphylococcus aureus at 8 times MIC after 24 hrs by time-kill assay. Format: functional, organism-based.
Test [16] deals with Staphylococcus aureus. The test can be described thus: Bactericidal activity against methicillin-resistant Staphylococcus aureus at 4 times MIC upto 60 mins by time-kill assay. The test is classed as functional, organism-based.
Test [17] relates to Staphylococcus aureus. The test can be described thus: Bactericidal activity against high level levofloxacin and methicillin-resistant Staphylococcus aureus at 2048 ug/ml after 24 hrs by time-kill assay. The test is classed as functional, organism-based.
For test [18], the system named is Staphylococcus aureus. The test can be described thus: Bactericidal activity against low level levofloxacin and methicillin-resistant Staphylococcus aureus at 16 times MIC after 24 hrs by time-kill assay. The test is classed as functional, organism-based.
The subject of test [19] is Staphylococcus aureus. The test can be described thus: Bactericidal activity against levofloxacin-sensitive and methicillin-resistant Staphylococcus aureus at 2048 ug/ml after 24 hrs by time-kill assay. Format: functional, organism-based.
The test system of test [20] is Staphylococcus aureus. Kind of test: Bactericidal activity against low level levofloxacin and methicillin-resistant Staphylococcus aureus at 4 times MIC after 24 hrs by time-kill assay. The test is classed as functional, organism-based.
Test [21] relates to Staphylococcus aureus. The test can be described thus: Bactericidal activity against methicillin-resistant Staphylococcus aureus at 16 times MIC upto 60 mins by time-kill assay. Format: functional, organism-based.
The subject of test [22] is Staphylococcus aureus. Kind of test: Bactericidal activity against methicillin-resistant Staphylococcus aureus at 8 times MIC upto 60 mins by time-kill assay. Format: functional, organism-based.
Test [23] relates to Staphylococcus aureus. The test can be described thus: Bactericidal activity against high level levofloxacin and methicillin-resistant Staphylococcus aureus at 4 times MIC after 24 hrs by time-kill assay. Format: functional, organism-based.
In test [24] the test system is Staphylococcus aureus. The test can be described thus: Bactericidal activity against high level levofloxacin and methicillin-resistant Staphylococcus aureus at 16 times MIC after 24 hrs by time-kill assay. The test is classed as functional, organism-based.
For test [25], the system named is Staphylococcus aureus. The test can be described thus: Bactericidal activity against low level levofloxacin and methicillin-resistant Staphylococcus aureus at 16 times MIC after 120 mins by time-kill assay. The test is classed as functional, organism-based.
Test [26] relates to Staphylococcus aureus. The test can be described thus: Bactericidal activity against low level levofloxacin and methicillin-resistant Staphylococcus aureus at 4 times MIC after 120 mins by time-kill assay. The test is classed as functional, organism-based.
Test [27] concerns Staphylococcus aureus. The test can be described thus: Bactericidal activity against low level levofloxacin and methicillin-resistant Staphylococcus aureus at 8 times MIC after 120 mins by time-kill assay. The test is classed as functional, organism-based.

Consider `C[C@H]1COc2c(N3CCN(C)CC3)c(F)cc3c(=O)c(C(=O)O)cn1c23.C[C@H]1COc2c(N3CCN(C)CC3)c(F)cc3c(=O)c(C(=O)O)cn1c23.O` [LEVOFLOXACIN], for which the minimum inhibitory concentration (MIC) against Staphylococcus aureus [1] stood at 0.25 µg/mL; with Staphylococcus aureus [2] it was 256 µg/mL; in the test with Staphylococcus aureus [6] it was 8 µg/mL; against Staphylococcus aureus [7], 0.25 µg/mL; against Staphylococcus aureus [8] it was 64 µg/mL; against Staphylococcus aureus [9], 4 µg/mL. In addition, the MIC against Staphylococcus aureus [11] stood at 8 µg/mL; against Staphylococcus aureus [13] it was 0.5 µg/mL; with Staphylococcus aureus [14], 512 µg/mL. Moreover, the result with Staphylococcus aureus [3], in the test with Staphylococcus aureus [4], in the test with Staphylococcus aureus [5], in the test on Staphylococcus aureus [10], with Staphylococcus aureus [12] and in the test with Staphylococcus aureus [15] was Active. For the same compound, the result in the test with Staphylococcus aureus [17], with Staphylococcus aureus [18], in the test on Staphylococcus aureus [19], in the test on Staphylococcus aureus [20], in the test with Staphylococcus aureus [23] and in the test with Staphylococcus aureus [24] was Active. Besides, the result with Staphylococcus aureus [16], with Staphylococcus aureus [21] and in the test on Staphylococcus aureus [22] was inactive.
`Cc1onc(-c2ccccc2)c1C(=O)N[C@@H]1C(=O)N2[C@@H]1SC(C)(C)[C@@H]2C(=O)O` [OXACILLIN]: the minimal inhibitory concentration (MIC) worked out at 128 µg/mL (≈ 319 µM) in the test with Staphylococcus aureus [1]; 512 µg/mL (≈ 1280 µM) against Staphylococcus aureus [2]; 512 µg/mL (≈ 1280 µM) with Staphylococcus aureus [6]; 256 µg/mL (≈ 638 µM) in the test on Staphylococcus aureus [7]; 256 µg/mL (≈ 638 µM) with Staphylococcus aureus [8]; 256 µg/mL (≈ 638 µM) in the test on Staphylococcus aureus [9]. Besides, the MIC in the test on Staphylococcus aureus [11] came to 256 µg/mL (≈ 638 µM); with Staphylococcus aureus [13], 512 µg/mL (≈ 1280 µM); against Staphylococcus aureus [14], 512 µg/mL (≈ 1280 µM).
For `COc1c(N2CCNC(C)C2)c(F)cc2c(=O)c(C(=O)O)cn(C3CC3)c12` (stereo not given) [GATIFLOXACIN], the MIC in the test on Staphylococcus aureus [1] was determined as 0.125 µg/mL (≈ 0.333 µM); against Staphylococcus aureus [2], 32 µg/mL (≈ 85.2 µM); against Staphylococcus aureus [6], 2 µg/mL (≈ 5.33 µM); with Staphylococcus aureus [7] it was 0.125 µg/mL (≈ 0.333 µM); against Staphylococcus aureus [8], 16 µg/mL (≈ 42.6 µM); against Staphylococcus aureus [9] it was 2 µg/mL (≈ 5.33 µM). Besides, the MIC with Staphylococcus aureus [11] was found to be 2 µg/mL (≈ 5.33 µM); with Staphylococcus aureus [13], 0.125 µg/mL (≈ 0.333 µM); against Staphylococcus aureus [14], 128 µg/mL (≈ 341 µM). Further, the outcome with Staphylococcus aureus [3], in the test with Staphylococcus aureus [25], with Staphylococcus aureus [4], in the test with Staphylococcus aureus [5], in the test on Staphylococcus aureus [10] and in the test with Staphylococcus aureus [12] was Active. The outcome in the test on Staphylococcus aureus [26], with Staphylococcus aureus [15], in the test with Staphylococcus aureus [17], in the test on Staphylococcus aureus [18], in the test with Staphylococcus aureus [19] and in the test with Staphylococcus aureus [20] was Active. In addition, the outcome in the test with Staphylococcus aureus [27], in the test with Staphylococcus aureus [23] and in the test with Staphylococcus aureus [24] was Active. Besides, the outcome in the test with Staphylococcus aureus [16], in the test with Staphylococcus aureus [21] and in the test with Staphylococcus aureus [22] was inactive.
